Reference: patent US5948792A, “Fluorine-containing 1,4-disubstituted piperidine derivatives” (Banyu Pharmaceutical Co., Ltd., priority 1996, dated 1999)

How the values were obtained:
[1] = biological target: T1, airway M3 receptor (Rattus norvegicus, UniProt P08483); assay: Antagonism to the airway M3 receptor in an isolated rat trachea (in vitro); assay type: cell-based; conditions: for Kb: isolated rat trachea, carbachol-induced contraction
T1 construct: the trachea was isolated; from tissue; host or cells: isolated trachea of male SD strain rat
T1 sequence (P08483 whole entry): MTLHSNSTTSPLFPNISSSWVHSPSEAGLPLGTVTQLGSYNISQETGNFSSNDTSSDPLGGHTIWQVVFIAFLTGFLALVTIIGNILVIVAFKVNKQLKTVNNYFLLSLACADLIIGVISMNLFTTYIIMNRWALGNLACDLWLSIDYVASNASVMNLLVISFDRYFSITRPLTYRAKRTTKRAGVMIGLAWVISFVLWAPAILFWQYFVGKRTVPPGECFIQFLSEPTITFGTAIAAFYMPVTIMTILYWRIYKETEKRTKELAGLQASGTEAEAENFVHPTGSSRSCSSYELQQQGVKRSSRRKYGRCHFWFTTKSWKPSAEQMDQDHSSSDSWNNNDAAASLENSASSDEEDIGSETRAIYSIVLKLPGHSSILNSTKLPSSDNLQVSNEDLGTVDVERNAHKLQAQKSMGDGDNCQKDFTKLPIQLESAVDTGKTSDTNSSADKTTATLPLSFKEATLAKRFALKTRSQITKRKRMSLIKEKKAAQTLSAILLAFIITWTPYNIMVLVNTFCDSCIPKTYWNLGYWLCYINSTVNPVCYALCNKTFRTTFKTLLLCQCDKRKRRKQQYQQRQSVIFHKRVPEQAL
Procedure: (§1) Tests for Antagonism to Muscarinic Receptors (in vitro)
2) Tests for Antagonism to the Airway M3 Receptor in an Isolated Rat Trachea
These tests were performed according to a conventional method. A male SD strain rat (weighing 300-500 g) was killed by exsanguination, and the trachea was isolated. Annular segments (2 mm wide) were cut out from the trachea and cut transversely at the anterior cartilage part to make open ring preparation. A preparation was suspended in a Magnus tube filled with 5 ml of Krebs-Henseleit solution (gassed with 95% O2 -5% CO2 and kept at 32° C.) with an initial tension of 1.0 g and a resting tension of 0.6 g. The tension of the preparation was recorded isometrically. After being equilibrated for an hour, the preparation was made to contract twice by treatment with 10^-4 M carbachol, and the second contraction induced by carbachol was used as the reference contraction. After the preparation was washed with fresh solution to be restored to the base line, a test compound was administered thereto (or no treatment was given). Ten minutes later, carbachol (10^-8 to 10^-3 M) was cumulatively administered in three-fold increasing doses to obtain a dose-response curve. The dose-response curve was plotted by expressing responses as percentages based on the reference contraction of the preparation as 100%. The antagonistic potency (K^B value) of the test compound was determined from the degree of shift of the dose-response curve obtained by treatment with the test compound.

[2] = biological target: T2, M2 receptor (Rattus norvegicus, UniProt P10980); assay: Antagonism to M2 receptor in an isolated rat right atrium (in vitro); assay type: cell-based; conditions: carbachol-induced decrease in heart rate
T2 construct: the right atrium was isolated; from tissue; host or cells: isolated right atrium of male SD strain rat
T2 sequence (P10980 1-466): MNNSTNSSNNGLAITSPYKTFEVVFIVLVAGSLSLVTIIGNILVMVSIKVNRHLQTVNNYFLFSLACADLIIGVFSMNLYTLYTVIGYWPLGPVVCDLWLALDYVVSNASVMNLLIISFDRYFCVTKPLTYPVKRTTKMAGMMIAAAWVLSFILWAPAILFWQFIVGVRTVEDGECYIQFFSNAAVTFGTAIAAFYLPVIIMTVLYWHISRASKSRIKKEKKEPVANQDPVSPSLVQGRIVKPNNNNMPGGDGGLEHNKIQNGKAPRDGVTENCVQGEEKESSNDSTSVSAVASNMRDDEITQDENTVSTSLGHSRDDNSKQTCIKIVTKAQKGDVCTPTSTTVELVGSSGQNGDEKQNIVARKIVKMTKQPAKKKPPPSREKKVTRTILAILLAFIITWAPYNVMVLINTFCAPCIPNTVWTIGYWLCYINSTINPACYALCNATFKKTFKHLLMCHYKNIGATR
Procedure: as §1
1) Tests for Antagonism to M2 receptor in an Isolated Rat Right Atrium
These tests were performed according to a conventional method. A male SD strain rat (weighing 300-500 g) was killed by exsanguination, and the right atrium was isolated. This preparation was isometrically suspended in organ bath filled with 20 ml of Krebs-Henseleit solution (gassed with 95% O2 -5% CO2 and kept at 32° C.) with an initial tension of 0.5 g. The heart rate was recorded with a heart rate counter. After the preparation was equilibrated for 30 minutes, carbachol (10^-9 to 10^-6 M) was cumulatively administered in three-fold increasing doses. Thus, a decrease in heart rate was measured to obtain a dose-response curve for the control experiment. After the preparation was washed with fresh solution to restore the heart rate, a test compound was administered thereto. Ten minutes later, carbachol was cumulatively administered again. Responses to carbachol were expressed as percentages based on the heart rate before administration of carbachol as 100%. The antagonistic potency (KB value) of the test compound was determined from the degree of shift of the dose-response curve obtained by treatment with individual test compound of the present invention.

[3] = biological target: T3, Muscarinic M3 Receptor (Rattus norvegicus, UniProt P08483); assay: Bronchodilation in rats (i.v.), inhibition of acetylcholine-induced increase in airway resistance; assay type: in vivo; conditions: iv, 5 min, acetylcholine 50 μg/kg i.v. 5 minutes after test compound, read-out: Inhibition of Airway Contraction ED50 iv
T3 construct: male rats of the Sprague-Dawley strain; from tissue; host or cells: airways of living male Sprague-Dawley rats (in vivo)
T3 sequence (P08483 whole entry): as the sequence (P08483 whole entry) above
Procedure: Tests for Antagonism Against Muscarinic M3 Receptor (in vivo)
1-A) Tests for Bronchodilation in Rats (i.v.).
Eight- to eleven-weeks-old male rats of the Sprague-Dawley strain, weighing 380-420 g, were anesthetized with urethane (750 mg/kg. i.p.) and α-chloralose (37.5 mg/kg, i.p.). The bronchus of each rat was intubated, and the right jugular vein was cannulated for drug administration. […] To evoke an increase in airway resistance, acetylcholine (50 μg/kg, i.v.) was administered to the animals. The acetylcholine-induced airway resistance increase was measured 5 minutes before and 5 minutes after administration of test compound, and the ratio of the airway resistance of the latter to the former was calculated. In controls, isotonic sodium chloride solution was used in place of the test compounds and otherwise identical procedures were repeated, the calculated ratio being set to be 100%.

SMILES | Kb [1] | M2/M3 (ratio of KB) ([1]; selectivity ratio of KB values, right atrium M2 / trachea M3) | Kb [2] | ED50 [3]
Cl.Cl.Nc1cccc(CN2CCC(NC(=O)[C@](O)(c3ccccc3)[C@@H]3CCC(F)(F)C3)CC2)n1 [Example 20, (2R)-N-[1-(6-aminopyridin-2-ylmethyl)piperidin-4-yl]-2-[(1R)-3,3-difluorocyclopentyl]-2-hydroxy-2-phenylacetamide dihydrochloride] | 1.6 nM | 630 | 2100 nM | 0.04 mg/kg
O=C(NC1CCN(Cc2ccsc2)CC1)[C@](O)(c1ccccc1)[C@@H]1CCC(F)(F)C1 [Example 11, (2R)-N-[1-(3-thienylmethyl)piperidin-4-yl]-2-[(1R)-3,3-difluorocyclopentyl]-2-hydroxy-2-phenylacetamide] | 0.95 nM |  | 610 nM | 0.032 mg/kg
